{"source": "patent US12152030B2", "about": "(NOVOSTAR PHARMACEUTICALS, LTD., priority 2019, dated 2024)", "key": {"[1]": {"experiment": "Pharmacokinetic study in rats", "assay_type": "in vivo", "details": "male, SD, plasma, rat", "procedure": "In the examples, rat pharmacokinetic tests were performed for compounds 2 and 26 to illustrate their pharmacokinetic properties in rats.\nFormulation of Liquors of Compound 2: […]\nExperimental Method for Pharmacokinetic Study in Rats\n(§1) Six SD rats, male, weighing 180-220 g, fasting for 12 hours, were randomly divided into 2 groups, 3 in each group. The animals in group A were intragastrically administrated with the compound liquor at a dose of 10 mg/kg; the animals in group B were intravenously administrated with the compound liquor via tails at a dose of 3 mg/kg. Blank blood was harvested before administration; about 100 μL of venous blood was harvested at different time points after administration, placed in a test tube added with heparin and centrifuged, and about 50 μL of blood plasma was collected and stored at −20° C. for testing.\nFormulation of Liquors of Compound 26: […]\nFormulation of solution for intravenous administration: compound 26 was dissolved in a solution of 5% DMSO+10% Solutol HS15+85% (20% HP-(3-CD physiological saline).\nFormulation of suspension for intragastric administration: compound 26 was dissolved in a solution of 5% DMSO+10% Solutol HS15+85% (20% HP-(3-CD physiological saline).\nAdministration dosage of compound 26: 1 mg/kg for intravenous injection, 3 mg/kg for intragastric administration.\nas §1, with “of 3” for “of 10”, “of 1” for “of 3”"}, "Phosphorylated eIF4E": {"system": "Phosphorylated eIF4E", "experiment": "Intracellular peIF4E signaling assay", "assay_type": "cell-based", "details": "2 h; two hours incubation at 37° C.; read-out: peIF4E signaling cell assay IC50", "procedure": "Phosphorylated eIF4E was determined using CisBio peIF4E assay kit (CisBio, catalog number 64EF4PEG). The cells were plated in a 96-well cell culture plate in a volume of 90 μL, and the number of cells per well was 5*10^4. The compounds (10×) were subjected to 3-fold serial dilution, added to the cell plate in a volume of 10 μL with the final DMSO concentration being 1%, and incubated at 37° C. for two hours. The cell plate was centrifuged at 300 g for 5 minutes, and the cell supernatant was carefully removed. The cell plate was immediately added with 50 μL of cell lysis buffer […] and incubated at 25° C. with shaking for at least 30 minutes. After homogenization by pipetting, 16 μL of cell lysate was transferred from the 96-well cell culture plate to a 384-well small-volume microwell plate. According to the kit instruction, an antibody mixture solution was prepared with a detection buffer, and was added in a volume of 4 μL to the 384-well small-volume microwell plate containing the cell lysate. The plate was covered with a plate sealer, incubated overnight at 25° C., and was read for fluorescence emission at two different wavelengths (665 nm and 615 nm) on the EnVision microplate reader counter. The emission ratio was imported into a GraphPadPrism software to fit the compound concentration (IC50) required for 50% inhibition of enzyme activity.\nIn this respect, IC50 values which are less than 0.05 μM were marked as “+++”, which are from 0.05 to 1.0 μM were marked as “++”, and which are greater than 1.0 and up to 100 μM were marked as “+”, and NA meant “not detected”."}, "MNK2": {"target": "MNK2 (Homo sapiens, UniProt Q9HBH9)", "sequence (Q9HBH9 whole entry)": "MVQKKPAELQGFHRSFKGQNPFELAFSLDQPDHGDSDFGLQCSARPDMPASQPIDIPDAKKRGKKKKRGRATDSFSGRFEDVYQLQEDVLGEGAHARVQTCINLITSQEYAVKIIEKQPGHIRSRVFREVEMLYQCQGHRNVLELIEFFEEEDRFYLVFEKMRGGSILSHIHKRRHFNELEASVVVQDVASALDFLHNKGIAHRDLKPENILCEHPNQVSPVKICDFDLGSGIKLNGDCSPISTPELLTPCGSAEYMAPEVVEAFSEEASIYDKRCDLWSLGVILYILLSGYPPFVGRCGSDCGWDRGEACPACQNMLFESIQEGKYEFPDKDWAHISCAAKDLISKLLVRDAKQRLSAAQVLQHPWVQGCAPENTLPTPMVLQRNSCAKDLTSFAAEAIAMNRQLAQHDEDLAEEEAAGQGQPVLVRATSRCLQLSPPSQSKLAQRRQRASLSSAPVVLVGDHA", "experiment": "MNK biological enzyme assay (HTRF kinase assay), MNK2", "assay_type": "biochemical", "parameters": "purchased ThermoFisher PV5607", "details": "1 ng/μl MNK2, 1 μM STK1 peptide, 100 μM ATP", "procedure": "A HTRF kinase assay kit (Cisbio, catalog number 62ST1PEB) was used to determine the MNK inhibitory activity of the compounds. All kinase reactions were performed in the reaction buffer (provided in the kit). The final MNK1 reaction involved 3 ng/ul recombinant MNK1 (ThermoFisher, PV6023), 1 μM MNK substrate peptide STK1 (provided in the kit), 100 μM ATP, and different concentrations of the inhibitory compounds of interest. The final MNK2 reaction involved 1 ng/μl recombinant MNK2 (ThermoFisher, PV5607), 1 μM MNK substrate peptide STK1 (provided in the kit), 100 μM ATP, and different concentrations of the inhibitory compounds of interest. The final DMSO concentration in each of the reactions was 1%.\nThe kinase reaction was performed in a final volume of 10 μl in a 384-well white flat-bottomed polystyrene plate. The MNK1/2 enzyme was pre-incubated with the compound and substrate peptide for 5 minutes, and then ATP was added thereto. After addition of ATP, the kinase reaction was incubated at 25° C. for 120 minutes or 60 minutes. The reaction was subsequently terminated by adding 5 μl of EU3+ substrate antibody detection reagent and 5 μl of XL665 detection reagent, and incubating for another 60 minutes. The luminescent signal was detected with an EnVision microplate reader counter (Perkin Elmer), and the signal from 10-point dilution series of the compounds was used to calculate the compound concentration (IC50) required to achieve 50% inhibition of enzyme activity.\nIn this respect, IC50 values which are less than 0.01 μM were marked as “+++”, which are from 0.01 to 0.1 μM were marked as “++”, and which are greater than 0.1 and up to 10.0 μM were marked as “+”, and NA meant “not detected”."}}, "note": "Counter-ions that a name gives are not always drawn.", "data": [{"smiles": "Cc1c2c(c(=O)n3c1C(=O)NC31CCCCC1)Nc1cc(N)ncc1C2", "note": "[Compound 2, 8′-amino-12′-methyl-6′,11′-dihydro-2′H-spiro[cyclohexane-1,3′-imidazole[1′,5′:1,6]pyrido[3,4-B][1,6]naphthyridine]-1′,5′-dione hydrochloride]", "values": [{"measurement": "AUC(0-inf)", "setting": "[1]; iv, 3 mg/kg", "value": 471, "unit": "ng·h/mL"}, {"measurement": "AUC(0-t)", "setting": "[1]; iv, 3 mg/kg", "value": 456, "unit": "ng·h/mL"}, {"measurement": "clearance", "setting": "[1]; iv, 3 mg/kg", "value": 110, "unit": "mL/min/kg"}, {"measurement": "half-life", "setting": "[1]; iv, 3 mg/kg", "value": 1.58, "unit": "h"}, {"measurement": "Vd", "setting": "[1]; iv, i.v., 3 mg/kg, read-out: Vz", "value": 12.3, "unit": "L/kg"}, {"measurement": "bioavailability", "setting": "[1]; oral, p.o. 10 mg/kg vs i.v. 3 mg/kg", "value": 38.8, "unit": "%"}, {"measurement": "AUC(0-inf)", "setting": "[1]; po, 10 mg/kg", "value": 624, "unit": "ng·h/mL"}, {"measurement": "AUC(0-t)", "setting": "[1]; po, 10 mg/kg", "value": 584, "unit": "ng·h/mL"}, {"measurement": "Cmax", "setting": "[1]; po, 10 mg/kg", "value": 130, "unit": "ng/mL"}, {"measurement": "Tmax", "setting": "[1]; po, 10 mg/kg", "value": 2.17, "unit": "h"}, {"measurement": "half-life", "setting": "[1]; po, 10 mg/kg", "value": 5.07, "unit": "h"}, {"measurement": "IC50", "setting": "Phosphorylated eIF4E", "value": "< 50", "unit": "nM"}, {"measurement": "IC50", "setting": "MNK2", "value": "< 10", "unit": "nM"}]}]}
